From patent US20200030415A1 (priority 2018, published 2020)
Values joined by “and” are separate entries in the source; they are usually repeats but may differ in a detail not shown here. Equal values may be shown once. Read-outs that look alike come from different tables or passages of the source.

Experiments:
Settings in all cases: human, in vivo
chronic migraine [1] = tested on: chronic migraine
migraine [2] = tested on: migraine
migraine [3] = tested on: migraine; remark: listed apart in the source
chronic migraine [4] = tested on: chronic migraine; remark: listed apart in the source
chronic migraine [5] = tested on: chronic migraine; remark: listed apart in the source

Molecule: C[C@@H]1[C@H](c2c(F)ccc(F)c2F)C[C@H](NC(=O)c2cnc3c(c2)C[C@@]2(C3)C(=O)Nc3ncccc32)C(=O)N1CC(F)(F)F [atogepant, reference compound]
- headache frequency (chronic migraine [1]): 9 days a month

Molecule: CC(C)NCC(O)COc1cccc2ccccc12 (centres unmarked) [Propranolol]
- adverse effect of oral preventive medication (migraine [2]): limited their exercise tolerance
- effect of oral preventive medication on headache frequency (migraine [2]): none of these reduced their headache frequency

Molecule: CC12CC3CC(C)(C1)CC(N)(C3)C2 [Namenda, memantine]
- benefit of added treatment (migraine [3]): minimal benefit

Molecule: CC1(C)O[C@@H]2[C@@H](CO[C@@]3(COS(N)(=O)=O)OC(C)(C)O[C@@H]23)O1 [topiramate]
- change of headaches with oral medication (migraine [3]): minimal change
- adverse effect of oral preventive medication (migraine [2]): cognitive slowing
- effect of oral preventive medication on headache frequency (migraine [2]): none of these reduced their headache frequency
- headache control with oral preventive medication (chronic migraine [4]; po): without headache control

Molecule: CN(C)CCC=C1c2ccccc2CCc2ccccc21 [Amitriptyline, amitriptyline]
- change of headaches with oral medication (migraine [3]): minimal change
- adverse effect of oral preventive medication (migraine [2]): weight gain
- effect of oral preventive medication on headache frequency (migraine [2]): none of these reduced their headache frequency

Molecule: OnabotulinumtoxinA
- headache frequency (migraine [3]): 10/30
- headache intensity (migraine [3]): 6-7 out of a scale of 10
- headache intensity (migraine [2]): 7 out of 10
- headache frequency (chronic migraine [1]): 10 days a month
- improvement of headache days from baseline (chronic migraine [4]): about 50%
- migraine days per month (chronic migraine [4]): 15 days per month
- headache frequency post treatment (chronic migraine [5]): 14 days/month

B1: erenumab (antibody, chains of the INN, looked up, V domains shown)
VH: QVQLVESGGGVVQPGRSLRLSCAASGFTFSSFGMHWVRQAPGKGLEWVAVISFDGSIKYSVDSVKGRFTISRDNSKNTLFLQMNSLRAEDTAVYYCARDRLNYYDSSGYYHYKYYGMAVWGQGTTVTVSS
VL: QSVLTQPPSVSAAPGQKVTISCSGSSSNIGNNYVSWYQQLPGTAPKLLIYDNNKRPSGIPDRFSGSKSGTSTTLGITGLQTGDEADYYCGTWDSRLSAVVFGGGTKLTVL
- headache frequency (chronic migraine [5]): 10 days/month and 15 days/month

B2: Ajovy (antibody, chains of the INN, looked up, V domains shown)
VH: EVQLVESGGGLVQPGGSLRLSCAASGFTFSNYWISWVRQAPGKGLEWVAEIRSESDASATHYAEAVKGRFTISRDNAKNSLYLQMNSLRAEDTAVYYCLAYFDYGLAIQNYWGQGTLVTVSS
VL: EIVLTQSPATLSLSPGERATLSCKASKRVTTYVSWYQQKPGQAPRLLIYGASNRYLGIPARFSGSGSGTDFTLTISSLEPEDFAVYYCSQSYNYPYTFGQGTKLEIK
- headache intensity (migraine [2]; sc): lower intensity
